From PMC5378956, “Inhibition of delta-secretase improves cognitive functions in mouse models of Alzheimer's disease” (Nature Communications, 2017) come the findings set out here.

The subject of one series is CYP3A. Kind of series: CYP inhibition screening in microsomes. The note with it: human.
The nature of series [1]: Liver microsomal stability, human. The note with it: Human microsomes, 30 min, 37 °C. As to the method: (§1) Supplementary Table 4: Liver microsomal stability
(§2) Compound Species Mean Remaining Parent Mean Remaining Parent
(§3) (with NADPH) (NADPH-free)
(§4) The test agents were incubated in duplicate with microsomes at 37 °C for 30 min. The reaction contained microsomal protein in 100 mM potassium phosphate, 2 mM NADPH, 3 mM MgCl2, pH 7.4. A control was run for each test agent omitting NADPH to detect NADPH-free degradation. Data are reported as % remaining of parent compound. ND, Peak not detected due to bioanalysis issue (poor ionization).
For orientation: Liver microsomes are vesicles of endoplasmic reticulum, rich in cytochrome P450 enzymes.

Another series addresses CYP2D6 (Homo sapiens, UniProt P10635). As to the kind of experiment: CYP inhibition screening in microsomes. The conditions noted are these: pH 7.4.
The next series concerns the target T1, caspase-3 (Homo sapiens, UniProt P42574).
T1 construct: purchased Millipore (Billerica, MA)
T1 sequence (P42574 29-175 limits assumed): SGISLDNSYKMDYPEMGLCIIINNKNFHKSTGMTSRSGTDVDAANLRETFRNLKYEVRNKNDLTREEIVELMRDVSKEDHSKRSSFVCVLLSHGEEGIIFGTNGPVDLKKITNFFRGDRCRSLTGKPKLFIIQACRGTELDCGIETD
T1 sequence (P42574 176-277 limits assumed): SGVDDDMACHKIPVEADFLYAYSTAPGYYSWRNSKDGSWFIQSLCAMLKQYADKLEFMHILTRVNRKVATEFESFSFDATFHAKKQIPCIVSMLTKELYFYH
As to the kind of experiment: IC50 assay with recombinant caspase-3. The series is classed as biochemical. The note with it: mean±s.d. The protocol: Caspase-3 and 8 – The enzyme was pre-incubated with inhibitor in assay buffer (100 mM HEPES pH 7.4, 0.1% CHAPS, 10% Sucrose) for 10 min at 37 °C.
(§5) To determine the IC50 values of the compounds towards δ-secretase, cathepsin-S, cathepsin-L, caspase-3 and caspase-8, purified recombinant enzyme was incubated in appropriate assay buffers in the presence of increasing concentrations of inhibitors. The formation of fluorescent product was monitored in duplicate reactions and the data were fit to appropriate equations to calculate the IC50 values.

In the next series the target is cathepsin-L (Homo sapiens, UniProt P07711). Kind of series: IC50 assay with cathepsin-L. The series is classed as biochemical. The note with it: mean±s.d. As to the method: Cathepsin-L – 100 nM enzyme was pre-incubated with inhibitor in assay buffer (100 mM Sodium Acetate pH 5.5, 1 mM EDTA) for 10 min at 37 °C. The reaction was initiated on addition of 25 μM substrate (D-Val-Leu-Lys-AMC (Bachem).
Sequence of cathepsin-L (P07711 114-333, species assumed): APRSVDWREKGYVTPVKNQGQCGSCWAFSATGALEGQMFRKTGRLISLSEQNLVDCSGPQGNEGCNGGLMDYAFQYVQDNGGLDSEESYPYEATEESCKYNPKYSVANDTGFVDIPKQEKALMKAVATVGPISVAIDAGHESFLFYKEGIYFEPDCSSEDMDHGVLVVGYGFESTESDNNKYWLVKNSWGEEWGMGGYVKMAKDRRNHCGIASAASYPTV
as §5

Series [2] can be described thus: Liver microsomal stability, mouse. The note with it: Mouse microsomes, 30 min, 37 °C. As to the method:
as §1, §2, §3, §4

A further series concerns the target T2, CYP1A2 (Homo sapiens, UniProt P05177).
T2 sequence (P05177 1-516): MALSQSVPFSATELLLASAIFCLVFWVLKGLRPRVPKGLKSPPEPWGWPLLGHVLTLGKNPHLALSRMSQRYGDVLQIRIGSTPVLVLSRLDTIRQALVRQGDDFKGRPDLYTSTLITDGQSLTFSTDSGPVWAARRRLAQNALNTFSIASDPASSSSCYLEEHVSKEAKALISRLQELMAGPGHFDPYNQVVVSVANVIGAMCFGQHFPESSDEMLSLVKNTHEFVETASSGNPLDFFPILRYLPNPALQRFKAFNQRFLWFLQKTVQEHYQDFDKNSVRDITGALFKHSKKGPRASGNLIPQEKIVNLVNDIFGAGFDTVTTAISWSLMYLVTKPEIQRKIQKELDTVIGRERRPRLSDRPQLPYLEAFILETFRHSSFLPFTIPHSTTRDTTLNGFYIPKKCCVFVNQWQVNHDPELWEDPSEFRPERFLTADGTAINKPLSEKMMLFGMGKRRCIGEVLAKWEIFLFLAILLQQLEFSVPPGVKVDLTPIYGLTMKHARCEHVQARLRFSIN
As to the kind of experiment: CYP inhibition screening in microsomes. The conditions noted are these: pH 7.4.

A further series addresses CYP3A4 (Homo sapiens, UniProt P08684). Kind of series: CYP inhibition screening in microsomes. The conditions noted are these: pH 7.4, probe midazolam.
The next series concerns the target T3, cathepsin-S (Homo sapiens, UniProt P25774).
T3 construct: purchased Athens Research and Technology (Athens, GA)
As to the kind of experiment: IC50 assay with recombinant cathepsin-S. The series is classed as biochemical. The note with it: mean±s.d. The protocol:
Cathepsin-S – 100 nM enzyme was pre-incubated with inhibitor in assay buffer (100 mM NaH2PO4 pH 6.5, 100 mM NaCl) for 10 min at 37 °C. The reaction was initiated on addition of 25 μM substrate (Boc-Val-Leu-Lys-AMC (Bachem).
as §5

The nature of series [3]: Caco-2 monolayer permeability screen. The note with it: human, Caco-2. The protocol: Supplementary Table 3: Caco-2 permeability and BBB-PAMPA permeability
For CaCo-2 permeability assay, cells were incubated with 10 µM of these reagents in
buffers for 2 h, and the receiver side buffer is removed for analysis by LC/MS/MS. Efflux […]
LLOQ: Lower Limit of Quantification; Papp: apparent permeability.
For orientation: Passage across Caco-2 layers is used to estimate intestinal permeability.

The target of the next series is T4, δ-secretase (Homo sapiens, UniProt Q99538).
T4 construct: tested with purified active δ-secretase, IC50 values for the top 8 candidates were calculated; purchased Sino Biological (Beijing, China)
T4 sequence (Q99538 18-323 limits assumed): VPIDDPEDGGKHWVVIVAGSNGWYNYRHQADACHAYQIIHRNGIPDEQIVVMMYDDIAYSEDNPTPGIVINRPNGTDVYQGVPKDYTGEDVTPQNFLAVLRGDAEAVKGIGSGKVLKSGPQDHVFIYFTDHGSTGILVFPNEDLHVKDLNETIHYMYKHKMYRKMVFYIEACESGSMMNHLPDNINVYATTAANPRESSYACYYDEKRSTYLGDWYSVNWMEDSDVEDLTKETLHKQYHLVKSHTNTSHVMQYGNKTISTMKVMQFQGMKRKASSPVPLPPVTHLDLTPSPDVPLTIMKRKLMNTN
Kind of series: IC50 assay with purified recombinant δ-secretase (AEP), substrate Cbz-Ala-Ala-Asn-AMC. The series is classed as biochemical. As to the method:
δ-secretase – 50 nM enzyme was pre-incubated with inhibitor in assay buffer (50 mM Sodium Citrate pH 5.5, 0.1% CHAPS, 60 mM Na2HPO4, 1 mM EDTA) for 10 min at 37 °C. The reaction was initiated on addition of 10 μM Cbz-Ala-Ala-Asn-AMC (Bachem).
as §5

The mark [4] stands for this setting: purified recombinant enzyme, mean±s.d., read-out: IC50 AEP (δ-secretase).

Like-named read-outs stand apart in the source and are kept apart here.

Sequence of CYP3A4 (P08684 whole entry): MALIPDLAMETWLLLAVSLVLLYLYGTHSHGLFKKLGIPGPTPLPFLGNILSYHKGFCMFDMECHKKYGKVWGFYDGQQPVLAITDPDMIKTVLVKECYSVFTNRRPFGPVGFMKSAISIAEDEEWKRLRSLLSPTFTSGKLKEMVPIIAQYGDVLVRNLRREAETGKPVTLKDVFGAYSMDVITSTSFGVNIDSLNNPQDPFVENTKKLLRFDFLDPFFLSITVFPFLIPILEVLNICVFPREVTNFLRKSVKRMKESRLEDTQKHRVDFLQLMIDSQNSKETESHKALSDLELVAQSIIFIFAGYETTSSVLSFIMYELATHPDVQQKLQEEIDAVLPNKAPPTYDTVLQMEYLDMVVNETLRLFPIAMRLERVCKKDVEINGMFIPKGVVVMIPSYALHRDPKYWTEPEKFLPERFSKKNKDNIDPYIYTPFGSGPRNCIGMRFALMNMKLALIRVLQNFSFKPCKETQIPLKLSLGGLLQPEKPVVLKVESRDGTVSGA
Sequence of CYP2D6 (P10635 whole entry): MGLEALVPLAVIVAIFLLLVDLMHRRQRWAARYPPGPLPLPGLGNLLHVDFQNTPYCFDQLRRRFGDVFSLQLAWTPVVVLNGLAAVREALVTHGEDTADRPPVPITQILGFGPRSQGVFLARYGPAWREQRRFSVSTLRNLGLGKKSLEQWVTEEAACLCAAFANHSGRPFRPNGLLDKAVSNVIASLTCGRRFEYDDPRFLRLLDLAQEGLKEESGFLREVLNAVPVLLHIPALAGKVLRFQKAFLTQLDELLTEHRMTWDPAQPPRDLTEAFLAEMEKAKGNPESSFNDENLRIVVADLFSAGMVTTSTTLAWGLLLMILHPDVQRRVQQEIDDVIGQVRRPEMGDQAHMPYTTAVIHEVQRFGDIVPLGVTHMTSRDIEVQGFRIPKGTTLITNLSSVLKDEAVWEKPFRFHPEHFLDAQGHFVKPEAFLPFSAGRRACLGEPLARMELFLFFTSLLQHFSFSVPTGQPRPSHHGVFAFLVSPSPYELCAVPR
T3 sequence (P25774 115-331, species assumed): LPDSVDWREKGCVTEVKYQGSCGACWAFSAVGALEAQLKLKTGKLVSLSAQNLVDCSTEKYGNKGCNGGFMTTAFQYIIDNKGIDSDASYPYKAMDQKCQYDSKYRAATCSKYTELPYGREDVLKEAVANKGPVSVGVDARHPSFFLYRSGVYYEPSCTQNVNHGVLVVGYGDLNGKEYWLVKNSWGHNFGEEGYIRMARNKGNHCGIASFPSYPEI

On to `Nc1ccc(N2CCOCC2)c2nonc12` [compound 11, 7-(morpholin-4-yl)-2,1,3-benzoxadiazol-4-amine], for which the inhibition at 10 min, 3 µM in the series on CYP3A (pH 7.4) was found to be 4.1%; at CYP2D6, 7.8%; at CYP1A2, 13.1%; at CYP3A4, 3.6%. Further, the inhibition at 10 min, 10 µM turned out to be 21.6% in the series with CYP3A (pH 7.4), 21.9% against CYP2D6, 37% at CYP1A2 and 8% against CYP3A4. The “Mean Remaining Parent (NADPH-free)” value turned out to be 93% in series [1] and 103% in [2]. The entries for the “Mean Remaining Parent (with NADPH)” value in series [1] and in series [2] were 76% and 20%, respectively. The IC50 on caspase-3 was 31.9 ± 1.94 µM; against cathepsin-L, more than 200 µM; on cathepsin-S, more than 200 µM. In series [3], this molecule had a Papp A→B at 2 h, 10 µM of 35 ×10⁻⁶ cm/s. This molecule gave a basolateral-to-apical permeability (Papp B→A) at 2 h, 10 µM in series [3] of 7 ×10⁻⁶ cm/s.
For the molecule `Cc1cccc(NCc2ccc(O)c3ncccc23)c1C` [compound 12], the IC50 was 0.28 ± 0.02 µM on δ-secretase (setting [4]), more than 200 µM at caspase-3, more than 200 µM against cathepsin-L and more than 200 µM at cathepsin-S. In addition, the inhibition at 10 min, 3 µM is 14.2% in the series on CYP3A (pH 7.4, probe testosterone); 2.9% on CYP2D6; 28.4% against CYP1A2; -2.5% at CYP3A4. Also, the inhibition at 10 min, 10 µM with CYP3A (pH 7.4, probe testosterone) was 27.6%; on CYP2D6 it was -2.6%; on CYP1A2, 44.5%; against CYP3A4 it was -2.5%. For the same molecule, the “Mean Remaining Parent (NADPH-free)” value in [1] came out at 1%; in series [2], 0%. In addition, the “Mean Remaining Parent (with NADPH)” value in series [1] and in series [2] was 1% throughout. The molecule also yielded an apical-to-basolateral permeability (Papp A→B) at 2 h, 10 µM in [3] of 1.4 ×10⁻⁶ cm/s. In series [3], this molecule showed a Papp B→A at 2 h, 10 µM of 3.7 ×10⁻⁶ cm/s. Besides, in series [3], the efflux ratio at 2 h, 10 µM stood at 2.7.
For `COc1ccc(N2CCN(C(c3ccc(N(C)C)cc3)c3nnnn3C(C)(C)C)CC2)cc1` (stereo not drawn) [compound 31], the IC50 on δ-secretase (setting [4]) is 0.26 ± 0.03 µM; at caspase-3, more than 100 µM; against cathepsin-L, 1.3 ± 0.39 µM; on cathepsin-S, more than 100 µM. The inhibition at 10 min, 3 µM in the series on CYP3A (pH 7.4, probe testosterone) was 2.5%; at CYP2D6 it was 9.9%; on CYP1A2, 13.5%; on CYP3A4 it was -0.9%. Besides, the inhibition at 10 min, 10 µM with CYP3A (pH 7.4, probe testosterone) is 0.7%; at CYP2D6, 1.4%; against CYP1A2, 10.3%; at CYP3A4, 18.1%. Besides, the figures for the “Mean Remaining Parent (NADPH-free)” value in series [1] and in series [2] were 75% and 86%, respectively. In addition, the “Mean Remaining Parent (with NADPH)” value in series [1] is 12%; in [2], 16%. In addition, the Papp A→B at 2 h, 10 µM in series [3] is 19.3 ×10⁻⁶ cm/s. This molecule displayed a Papp B→A at 2 h, 10 µM in series [3] of 17.4 ×10⁻⁶ cm/s. Besides, the efflux ratio at 2 h, 10 µM in series [3] was 0.9.
For the molecule `Cn1c(=O)[nH]c(=O)c2c1nc(S)n2CC(O)COc1ccc(Cl)cc1` (stereo not drawn) [compound 38], the IC50 at δ-secretase (purified active δ-secretase, read-out: IC50 / potency toward δ-secretase) is approximately 0.37 µM; on δ-secretase (setting [4]) it was 0.37 ± 0.06 µM; on caspase-3 it was 29.7 ± 4.68 µM; against cathepsin-L, more than 200 µM; at cathepsin-S, more than 200 µM. For the same molecule, the inhibition at 10 min, 3 µM is -6% with CYP3A (pH 7.4, probe testosterone); -5.4% on CYP2D6; -7.6% at CYP1A2; 7.3% against CYP3A4. Besides, the inhibition at 10 min, 10 µM with CYP3A (pH 7.4, probe testosterone) was found to be 2.4%; on CYP2D6, 0.9%; on CYP1A2, 10.5%; at CYP3A4 it was 10.4%. The “Mean Remaining Parent (NADPH-free)” value in [1] came out at 107%; in series [2] it was 99%. In addition, the “Mean Remaining Parent (with NADPH)” value in series [1] was 88%; in series [2] it was 98%. The same molecule came in with a Papp A→B at 2 h, 10 µM in series [3] of 1.1 ×10⁻⁶ cm/s. The basolateral-to-apical permeability (Papp B→A) at 2 h, 10 µM in series [3] came out at 20.3 ×10⁻⁶ cm/s. Besides, the efflux ratio at 2 h, 10 µM in [3] came to 18.2.

For orientation: inhibition means the drop in the measured response relative to a control, in per cent. In general, Papp A→B refers to how fast a substance crosses the layer from the apical side. For orientation: Papp B→A means how fast a substance crosses the layer from the basolateral side. The efflux ratio is the permeability from basolateral to apical divided by that in the opposite direction, in the common usage.
